Experimental data from ChEMBL document CHEMBL4680155, “One-pot synthesis and molecular docking of some new spiropyranindol-2-one derivatives as immunomodulatory agents and in vitro antimicrobial potential with DNA gyrase inhibitor” (Eur J Med Chem, 2020).
Values after ≈ are worked out from the molar mass of the structure shown. Active and inactive are the calls of the source. The calls are words filed in the database; no cut-off is given here.

Columns and labels:
Escherichia coli [1] = assay: Bactericidal activity against Escherichia coli ATCC BAA-196 incubated for 24 hrs followed by transferring to freshly prepared broth medium and measured after 24 hrs by broth microdilution assay; type: functional; details: time 48 hrs
Staphylococcus aureus [2] = assay: Bactericidal activity against Staphylococcus aureus ATCC 33591 incubated for 24 hrs followed by transferring to freshly prepared broth medium and measured after 24 hrs by broth microdilution assay; type: functional; details: time 48 hrs
Escherichia coli [3] = assay: Antibacterial activity against multidrug resistant Escherichia coli ATCC BAA-196 assessed as diameter of inhibition zone at 0.5 mg/ml incubated for 24 hrs by agar diffusion method; type: functional; details: read-out: DIZ
Pseudomonas aeruginosa [4] = assay: Antibacterial activity against multidrug resistant Pseudomonas aeruginosa ATCC BAA-2111 assessed as diameter of inhibition zone at 0.5 mg/ml incubated for 24 hrs by agar diffusion method; type: functional; details: read-out: DIZ
Pseudomonas aeruginosa [5] = assay: Bactericidal activity against Pseudomonas aeruginosa ATCC BAA-2111 incubated for 24 hrs followed by transferring to freshly prepared broth medium and measured after 24 hrs by broth microdilution assay; type: functional; details: time 48 hrs
Staphylococcus aureus [6] = assay: Antibacterial activity against multidrug resistant Staphylococcus aureus ATCC 43300 assessed as reduction in bacterial growth incubated for 1 day by paper disk diffusion method; type: functional; details: ATCC 43300, 24 h
Escherichia coli [7] = assay: Antibacterial activity against multidrug resistant Escherichia coli ATCC BAA-196 assessed as reduction in bacterial growth incubated for 1 day by paper disk diffusion method; type: functional; details: ATCC BAA-196, 24 h
Staphylococcus aureus [8] = assay: Bactericidal activity against Staphylococcus aureus ATCC 43300 incubated for 24 hrs followed by transferring to freshly prepared broth medium and measured after 24 hrs by broth microdilution assay; type: functional; details: time 48 hrs
Staphylococcus aureus [9] = assay: Antibacterial activity against multidrug resistant Staphylococcus aureus ATCC 33591 assessed as reduction in bacterial growth incubated for 1 day by paper disk diffusion method; type: functional; details: ATCC 33591, 24 h
Staphylococcus aureus [10] = assay: Antibacterial activity against multidrug resistant Staphylococcus aureus ATCC 33591 assessed as diameter of inhibition zone at 0.5 mg/ml incubated for 24 hrs by agar diffusion method; type: functional; details: read-out: DIZ
Pseudomonas aeruginosa [11] = assay: Antibacterial activity against multidrug resistant Pseudomonas aeruginosa ATCC BAA-2111 assessed as reduction in bacterial growth incubated for 1 day by paper disk diffusion method; type: functional; details: ATCC BAA-2111, 24 h
Staphylococcus aureus [12] = assay: Antibacterial activity against multidrug resistant Staphylococcus aureus ATCC 43300 assessed as diameter of inhibition zone at 0.5 mg/ml incubated for 24 hrs by agar diffusion method; type: functional; details: read-out: DIZ
Escherichia coli [13] = assay: Antibacterial activity against Escherichia coli ATCC 25922 assessed as reduction in bacterial growth incubated for 1 day by paper disk diffusion method; type: functional
Candida albicans [14] = assay: Antifungal activity against Candida albicans ATCC 10231 assessed as diameter of inhibition zone at 0.5 mg/ml incubated for 24 hrs by agar diffusion method; type: functional; details: read-out: DIZ
Salmonella typhimurium [15] = assay: Antibacterial activity against Salmonella typhi ATCC 6539 assessed as reduction in bacterial growth incubated for 1 day by paper disk diffusion method; type: functional, Salmonella enterica subsp. enterica serovar Typhimurium
Candida albicans [16] = assay: Antifungal activity against Candida albicans ATCC 10231 assessed as reduction in bacterial growth incubated for 1 day by paper disk diffusion method; type: functional; details: ATCC 10231, 24 h
Aspergillus brasiliensis [17] = assay: Antifungal activity against Aspergillus brasiliensis ATCC 16404 assessed as reduction in bacterial growth incubated for 3 days by paper disk diffusion method; type: functional; details: ATCC 16404, 72 h, time 3 day
Aspergillus brasiliensis [18] = assay: Antifungal activity against Aspergillus brasiliensis ATCC 16404 assessed as diameter of inhibition zone at 0.5 mg/ml incubated for 72 hrs by agar diffusion method; type: functional; details: read-out: DIZ
Escherichia coli [19] = assay: Antibacterial activity against Escherichia coli ATCC 25922 assessed as diameter of inhibition zone at 0.5 mg/ml incubated for 24 hrs by agar diffusion method; type: functional; details: for zone of inhibition at 500 µg/mL: read-out: DIZ
Salmonella typhimurium [20] = assay: Antibacterial activity against Salmonella typhi ATCC 6539 assessed as diameter of inhibition zone at 0.5 mg/ml incubated for 24 hrs by agar diffusion method; type: functional, Salmonella enterica subsp. enterica serovar Typhimurium; details: for zone of inhibition at 500 µg/mL: Salmonella enterica, read-out: DIZ
Enterococcus faecalis [21] = assay: Antibacterial activity against Enterococcus faecalis ATCC 29212 assessed as reduction in bacterial growth incubated for 1 day by paper disk diffusion method; type: functional
Enterococcus faecalis [22] = assay: Antibacterial activity against Enterococcus faecalis ATCC 29212 assessed as diameter of inhibition zone at 0.5 mg/ml incubated for 24 hrs by agar diffusion method; type: functional; details: for zone of inhibition at 500 µg/mL: read-out: DIZ
Staphylococcus aureus [23] = assay: Antibacterial activity against Staphylococcus aureus ATCC 29213 assessed as reduction in bacterial growth incubated for 1 day by paper disk diffusion method; type: functional
Staphylococcus aureus [24] = assay: Antibacterial activity against Staphylococcus aureus ATCC 29213 assessed as diameter of inhibition zone at 0.5 mg/ml incubated for 24 hrs by agar diffusion method; type: functional; details: for zone of inhibition at 500 µg/mL: read-out: DIZ
Candida albicans [25] = assay: Fungicidal activity against Candida albicans ATCC 10231 incubated for 24 hrs followed by transferring to freshly prepared broth medium and measured after 24 hrs by broth microdilution assay; type: functional; details: time 48 hrs
Aspergillus brasiliensis [26] = assay: Fungicidal activity against Aspergillus brasiliensis ATCC 16404 incubated for 72 hrs followed by transferring to freshly prepared broth medium and measured after 24 hrs by broth microdilution assay; type: functional; details: time 96 hrs
[27] = Salmonella enterica, ATCC 6539, 24 h
[28] = Salmonella enterica subsp. enterica serovar Typhimurium

SMILES | MIC (Escherichia coli [13]; ATCC 25922, 24 h) [µg/mL] | zone of inhibition at 500 µg/mL (Candida albicans [14]) [mm] | MIC (Salmonella typhimurium [15]; [27]) [µg/mL] | MIC (Candida albicans [16]) [µg/mL] | MIC (Aspergillus brasiliensis [17]) [µg/mL] | zone of inhibition at 500 µg/mL (Aspergillus brasiliensis [18]) [mm] | zone of inhibition at 500 µg/mL (Escherichia coli [19]) [mm] | zone of inhibition at 500 µg/mL (Salmonella typhimurium [20]) [mm] | MIC (Enterococcus faecalis [21]; ATCC 29212, 24 h) [µg/mL] | zone of inhibition at 500 µg/mL (Enterococcus faecalis [22]) [mm] | MIC (Staphylococcus aureus [23]; ATCC 29213, 24 h) [µg/mL] | zone of inhibition at 500 µg/mL (Staphylococcus aureus [24]) [mm] | other results
CCn1cc(C(=O)O)c(=O)c2cc(F)c(N3CCNCC3)cc21 [NORFLOXACIN] |  |  |  |  |  |  |  |  |  |  |  |  | MBC (Escherichia coli [1]): 3.53 µg/mL (≈ 11.1 µM); MBC (Staphylococcus aureus [2]): 1.56 µg/mL (≈ 4.89 µM); zone of inhibition at 500 µg/mL (Escherichia coli [3]): 27 mm; zone of inhibition at 500 µg/mL (Pseudomonas aeruginosa [4]): 24 mm; MBC (Pseudomonas aeruginosa [5]): 4.69 µg/mL (≈ 14.7 µM); MIC (Staphylococcus aureus [6]): 1.25 µg/mL (≈ 3.91 µM); MIC (Escherichia coli [7]): 1.57 µg/mL (≈ 4.92 µM); MBC (Staphylococcus aureus [8]): 2.81 µg/mL (≈ 8.8 µM); MIC (Staphylococcus aureus [9]): 0.78 µg/mL (≈ 2.44 µM); zone of inhibition at 500 µg/mL (Staphylococcus aureus [10]): 26 mm; MIC (Pseudomonas aeruginosa [11]): 3.13 µg/mL (≈ 9.8 µM); zone of inhibition at 500 µg/mL (Staphylococcus aureus [12]): 25 mm
CCOC(=O)C1=C(C)OC(N)=C(C(=O)OCC)C12C(=O)Nc1ccc(S(=O)(=O)N3CCCCC3)cc12 (stereo not given) | 71.1 (≈ 137 µM) | 12 | 88.3 (≈ 170 µM) | 88.3 (≈ 170 µM) | 133 (≈ 257 µM) | 12 | 12 | 13 | 35.5 (≈ 68.4 µM) | 19 | 88.3 (≈ 170 µM) | 13 | 
CCOC(=O)C1=C(C)OC(N)=C(C#N)C12C(=O)Nc1ccc(S(=O)(=O)N3CCCCC3)cc12 (stereo not given) | 35.5 (≈ 75.2 µM) | 15 | 125 (≈ 265 µM) | 62.5 (≈ 132 µM) | 143 (≈ 302 µM) | 10 | 17 | 13 | 71.1 (≈ 150 µM) | 18 | 83.3 (≈ 176 µM) | 17 | 
N#CC(C#N)=C1C(=O)Nc2ccc(S(=O)(=O)N3CCCCC3)cc21 | 125 (≈ 365 µM) | 16 | 143 (≈ 417 µM) | 125 (≈ 365 µM) | 62.5 (≈ 183 µM) | 16 | 13 | 12 | 62.5 (≈ 183 µM) | 17 | 133 (≈ 389 µM) | 10 | 
CCOC(=O)C1=C(N)OC(c2ccccc2)=C(C(=O)OCC)C12C(=O)Nc1ccc(S(=O)(=O)N3CCOCC3)cc12 (stereo not given) | 35.5 (≈ 60.9 µM) | 14 | 125 (≈ 214 µM) | 88.3 (≈ 151 µM) | 133 (≈ 228 µM) | 9 | 16 | 13 | 31.2 (≈ 53.5 µM) | 20 | 88.3 (≈ 151 µM) | 17 | 
CCOC(=O)C1=C(C)OC(N)=C(C(=O)OCC)C12C(=O)Nc1ccc(S(=O)(=O)N3CCOCC3)cc12 (stereo not given) | 31.2 (≈ 59.9 µM) | 13 | 142 (≈ 273 µM) | 125 (≈ 240 µM) | 133 (≈ 256 µM) | 11 | 18 | 10 | 62.5 (≈ 120 µM) | 16 | 125 (≈ 240 µM) | 14 | 
C[C@@H]1[C@H](O)[C@@H](C)/C=C/C=C/C=C/C=C/C=C/C=C/C=C/[C@H](O[C@@H]2O[C@H](C)[C@@H](O)[C@H](N)[C@@H]2O)C[C@@H]2O[C@](O)(C[C@@H](O)C[C@@H](O)[C@H](O)CC[C@@H](O)C[C@@H](O)CC(=O)O[C@H]1C)C[C@H](O)[C@H]2C(=O)O [AMPHOTERICIN B] |  | 22 |  | 15.6 (≈ 16.9 µM) | 31.2 (≈ 33.8 µM) |  |  |  |  |  |  |  | MIC (Escherichia coli [13]): inactive; MFC (Candida albicans [25]): 34.6 µg/mL (≈ 37.5 µM); MIC (Salmonella typhimurium [15]; [28]): inactive; MFC (Aspergillus brasiliensis [26]): 65.6 µg/mL (≈ 71 µM); diameter of the inhibition zone (DIZ) (Escherichia coli [19]): inactive; diameter of the inhibition zone (DIZ) (Salmonella typhimurium [20]; [28]): inactive; MIC (Enterococcus faecalis [21]): inactive; diameter of the inhibition zone (DIZ) (Enterococcus faecalis [22]): inactive; MIC (Staphylococcus aureus [23]): inactive; diameter of the inhibition zone (DIZ) (Staphylococcus aureus [24]): inactive
